For the assay, the target named is A-kinase anchor protein 7 isoform gamma (Human, UniProt Q9P0M2). Kind of assay: Binding Assay. As to the method: Stable and optimal assay conditions were determined by cross-titrating GST-AKAP18δ and biotinylated PLB using 10 μg/ml glutathione acceptor beads and 10 μg/ml streptavidin donor beads in an AlphaScreen assay. The excitation wavelength was 680 nm, with the emission wavelength being 520-560 nm. Signal intensity in each well was registered and the optimal concentration to use was chosen to be the concentration prior to the peak of the signal.

SMILES strings stand for the structures.

Sequence of A-kinase anchor protein 7 isoform gamma (Q9P0M2 whole entry, canonical isoform): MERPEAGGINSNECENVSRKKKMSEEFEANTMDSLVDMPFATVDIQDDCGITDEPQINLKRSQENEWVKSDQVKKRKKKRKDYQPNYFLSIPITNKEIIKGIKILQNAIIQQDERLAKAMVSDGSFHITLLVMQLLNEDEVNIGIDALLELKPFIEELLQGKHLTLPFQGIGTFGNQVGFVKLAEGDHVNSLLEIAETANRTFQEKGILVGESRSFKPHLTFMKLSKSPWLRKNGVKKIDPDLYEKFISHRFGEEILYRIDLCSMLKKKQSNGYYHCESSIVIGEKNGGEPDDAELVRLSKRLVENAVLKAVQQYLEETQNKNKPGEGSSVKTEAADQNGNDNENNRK

Turning to `Cc1ccc(NC(=O)Nc2ccc(CN(Cc3ccc(NC(=O)Nc4ccc(C)cc4)cc3)Cc3ccc(NC(=O)Nc4ccc(C)cc4)cc3)cc2)cc1` [US9556111, Table 1.20], the EC50 amounted to 5.2 µM.

By EC50 is commonly meant the midpoint of the concentration-response curve.

These data come from BindingDB's records for patent US9556111 (UNIVERSITETET I OSLO, 2017).
